The target of one assay is T1, IKKε (Homo sapiens, UniProt Q14164).
T1 construct: TBK1 and IKKε were expressed and purified as full length recombinant proteins; made in house
T1 sequence (Q14164 1-716): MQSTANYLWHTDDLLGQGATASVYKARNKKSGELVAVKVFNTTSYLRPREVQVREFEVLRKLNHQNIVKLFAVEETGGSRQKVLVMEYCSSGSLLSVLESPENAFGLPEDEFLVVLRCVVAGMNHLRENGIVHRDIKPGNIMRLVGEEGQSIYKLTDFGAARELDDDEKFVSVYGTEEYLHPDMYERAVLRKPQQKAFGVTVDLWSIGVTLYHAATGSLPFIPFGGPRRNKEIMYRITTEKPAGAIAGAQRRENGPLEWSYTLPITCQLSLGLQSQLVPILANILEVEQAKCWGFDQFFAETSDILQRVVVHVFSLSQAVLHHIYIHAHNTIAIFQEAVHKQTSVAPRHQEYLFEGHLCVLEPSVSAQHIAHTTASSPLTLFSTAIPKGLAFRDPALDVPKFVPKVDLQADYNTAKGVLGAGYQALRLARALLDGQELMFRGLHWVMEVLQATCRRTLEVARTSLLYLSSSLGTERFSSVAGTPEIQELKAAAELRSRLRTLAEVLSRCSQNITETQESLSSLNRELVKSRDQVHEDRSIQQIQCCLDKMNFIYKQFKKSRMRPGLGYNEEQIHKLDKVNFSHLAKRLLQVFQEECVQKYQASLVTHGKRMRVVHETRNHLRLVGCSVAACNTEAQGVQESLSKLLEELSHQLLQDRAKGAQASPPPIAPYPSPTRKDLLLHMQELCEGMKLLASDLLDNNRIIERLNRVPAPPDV
Description: TR-FRET enzymatic activity assay, IKKε. Also: full length recombinant IKKε at 0.3 nM. The class given is biochemical. Conditions: read-out: IKKϵ IC50. In a few lines:
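IC50 values are geometric means of at least four determinations, fitted to a four-parameter curve after normalising to 1 μM staurosporine and DMSO. Signal: Eu-cryptate anti-phospho antibody plus 125 nM streptavidin-XL665 on a biotinylated peptide. Full-length recombinant enzyme reacted 240 min, 25 °C, then EDTA-quenched.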

The target of the next assay is T2, TBK1 (Homo sapiens, UniProt Q9UHD2).
T2 construct: TBK1 and IKKε were expressed and purified as full length recombinant proteins; made in house
T2 sequence (Q9UHD2 1-729): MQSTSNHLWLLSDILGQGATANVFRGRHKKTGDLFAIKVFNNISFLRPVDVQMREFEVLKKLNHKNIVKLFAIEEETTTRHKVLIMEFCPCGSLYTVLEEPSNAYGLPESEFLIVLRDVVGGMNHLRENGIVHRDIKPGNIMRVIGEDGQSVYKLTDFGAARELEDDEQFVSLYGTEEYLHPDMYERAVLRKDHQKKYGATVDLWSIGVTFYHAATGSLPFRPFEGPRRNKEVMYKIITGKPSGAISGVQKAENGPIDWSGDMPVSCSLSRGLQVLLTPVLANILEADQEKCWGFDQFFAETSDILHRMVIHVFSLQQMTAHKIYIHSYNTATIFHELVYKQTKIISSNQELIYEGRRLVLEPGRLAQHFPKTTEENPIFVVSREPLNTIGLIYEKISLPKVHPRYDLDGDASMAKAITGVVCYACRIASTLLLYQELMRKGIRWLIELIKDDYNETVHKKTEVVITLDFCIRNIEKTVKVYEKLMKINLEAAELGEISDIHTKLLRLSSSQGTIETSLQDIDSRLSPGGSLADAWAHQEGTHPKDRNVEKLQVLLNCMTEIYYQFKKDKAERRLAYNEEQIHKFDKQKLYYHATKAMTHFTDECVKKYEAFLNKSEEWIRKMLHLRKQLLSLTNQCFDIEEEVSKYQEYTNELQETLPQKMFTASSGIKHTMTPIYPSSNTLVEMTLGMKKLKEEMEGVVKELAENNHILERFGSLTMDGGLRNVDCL
Description: TR-FRET enzymatic activity assay, TBK1. Also: full length recombinant TBK1 at 2.5 nM. The class given is biochemical. In a few lines:
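TR-FRET detected phosphorylation of a biotinylated serine/threonine peptide using 125 nM streptavidin XL665 plus europium-labelled anti-phospho antibody. Reactions with full-length recombinant kinase ran 240 min at 25 °C before EDTA quench. Values are geometric-mean IC50s (n ≥ 4) from four-parameter dose-response fits against staurosporine and DMSO controls.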

Broadly, the IC50 is the concentration that inhibits the measured activity by half.

Consider `N#Cc1cc(-c2ccnc(NC(=O)[C@H]3[C@@H]4CNC[C@@H]43)c2)ccc1OC1CCOCC1` [Example 124, (1R,5S,6R-rel)-N-(4-(3-cyano-4-((tetrahydro-2H-pyran-4-yl)oxy)phenyl)pyridin-2-yl)-3-azabicyclo[3.1.0]hexane-6-carboxamide], for which the IC50 on IKKε worked out at 316 nM; at TBK1 it was 628 nM.
Take `N#Cc1cc(-c2ccnc(NC(=O)[C@H]3C[C@@H]3c3cccnc3)c2)ccc1O[C@H]1CCN(C(=O)[C@@H](O)CO)CC1(F)F` [Example 140, (1S, 2S)—N-(4-(3-cyano-4-(((S)-1-((S)-2,3-dihydroxypropanoyl)-3,3-difluoropiperidin-4-yl)oxy)phenyl)pyridin-2-yl)-2-(pyridin-3-yl)cyclopropane-1-carboxamide]: the IC50 amounted to 5.9 nM at IKKε and 4.6 nM at TBK1.
Take `N#Cc1cc(-c2ccnc(NC(=O)[C@@H]3C[C@@H]3F)c2)ccc1O[C@H]1CCN(C(=O)CO)C[C@H]1F` [Example 61, (1S,2S)—N-(4-(3-cyano-4-(((3R,4S)-3-fluoro-1-(2-hydroxyacetyl)piperidin-4-yl)oxy)phenyl)pyridin-2-yl)-2-fluorocyclopropanecarboxamide]: the IC50 on IKKε was 32.2 nM; against TBK1, 16.4 nM.
Taken in the same sequence, the figures for `N#Cc1cc(-c2cc(NC(=O)C3CC3)ncn2)ccc1O[C@H]1CCNCC1(F)F` [Example 25, (S)—N-(6-(3-cyano-4-((3,3-difluoropiperidin-4-yl)oxy)phenyl)pyrimidin-4-yl)cyclopropanecarboxamide] were 297 nM and 93.3 nM.
As for `N#Cc1cc(-c2cc(NC(=O)[C@@H]3C[C@H]3c3cccnc3)ncn2)ccc1O[C@H]1CCN(C(=O)CO)CC1(F)F` [Example 129, (1,2-Trans)-N-(6-(3-cyano-4-(((S)-3,3-difluoro-1-(2-hydroxyacetyl)piperidin-4-yl)oxy)phenyl)pyrimidin-4-yl)-2-(pyridin-3-yl)cyclopropane-1-carboxamide], the concentration for half-maximal inhibition (IC50) on IKKε came to 32.2 nM; on TBK1, 9.3 nM.
Regarding `N#Cc1cc(-c2ccnc(NC(=O)C3CC3)c2)ccc1O[C@H]1CCN(C(=O)CCO)CC1(F)F` [Example 15, (S)—N-(4-(3-cyano-4-((3,3-difluoro-1-(3-hydroxypropanoyl)piperidin-4-yl)oxy)phenyl)pyridin-2-yl)cyclopropanecarboxamide], the half-inhibitory concentration (IC50) at IKKε stood at 84.2 nM; against TBK1, 23.2 nM.
On to `CC(O)[C@@H]1C[C@H]1C(=O)Nc1cc(-c2ccc(OC3CCOCC3)c(C#N)c2)ccn1` (stereo partly drawn) [Example 39, (1,2-trans)-N-(4-(3-cyano-4-((tetrahydro-2H-pyran-4-yl)oxy)phenyl)pyridin-2-yl)-2-(-1-hydroxyethyl)cyclopropane-1-carboxamide], for which the figures for the IC50 on IKKε and on TBK1 were 73.2 nM and 96.3 nM, respectively.
In the case of `Cn1cc([C@@H]2C[C@H]2C(=O)Nc2cc(-c3ccc(O[C@H]4CCN(C(=O)[C@@H](O)CO)CC4(F)F)c(C#N)c3)ncn2)cn1` [Example 132, (1,2-Trans)-N-(6-(3-cyano-4-(((S)-1-((S)-2,3-dihydroxypropanoyl)-3,3-difluoropiperidin-4-yl)oxy)phenyl)pyrimidin-4-yl)-2-(1-methyl-1H-pyrazol-4-yl)cyclopropane-1-carboxamide], the IC50 on IKKε came to 12.3 nM; against TBK1, 4.7 nM.
`N#Cc1cc(-c2ccnc(NC(=O)[C@@H]3C[C@H]3C(=O)N3CC(O)C3)c2)ccc1OC1CCOCC1` (relative stereo) [Example 45, (1,2-trans)-N-(4-(3-cyano-4-((tetrahydro-2H-pyran-4-yl)oxy)phenyl)pyridin-2-yl)-2-(3-hydroxyazetidine-1-carbonyl)cyclopropane-1-carboxamide]: the values for the half-maximal inhibitory concentration (IC50) at IKKε and at TBK1 were 427 nM and 444 nM, respectively.
For `CN(C)C[C@@H]1C[C@H]1C(=O)Nc1cc(-c2ccc(OC3CCOCC3)c(C#N)c2)ccn1` (relative stereo) [Example 41, (1,2-trans)-N-(4-(3-cyano-4-((tetrahydro-2H-pyran-4-yl)oxy)phenyl)pyridin-2-yl)-2-((dimethylamino)methyl)cyclopropane-1-carboxamide], the half-maximal inhibitory concentration (IC50) at IKKε was 80.3 nM; on TBK1, 267 nM.

These data come from patent US10316049B2, “Tank-binding kinase inhibitor compounds” (Gilead Sciences, Inc., priority 2015, dated 2019).
